Assays:
MBP = MBP (Escherichia coli, UniProt P0AEX9); test: MicroScale Thermophoresis binding to MBP alone (control); details: MST
Excerpt: The above results prompted us to reason whether HUHS015-36 could directly target caspase-2 for activation without the requirement of any other mediator. To directly test this hypothesis, we tried to obtain purified caspase-2 protein. The preparation of full-length caspase-2 protein is known to be technically challenging. Meanwhile, the CARD domain of a caspase often plays the role in sensing upstream signals, as exemplified by the CARD of caspase-2 that is recruited by RAIDD through the CARD–CARD interaction for assembling the PIDDosome. […]
Figure 4. […] (A) The direct binding between HUHS015-36 and MBP-fused human caspase-2 pro-domain was detected by microscale thermophoresis (MST). […] The calculated dissociation constant (KD) is expressed as means ± s.d. from two determinations. […] ATP-based cell viability in panels (C–E) is expressed as mean ± s.d. from three technical replicates. […] TEXT PRINTED IN THE PICTURE: (A) HUHS015-36: MBP-CASP2(32–165) vs. HUHS015-36: KD (μmol/L): 22.05 ± 6.151; MBP vs. HUHS015-36: KD (μmol/L): Not detected
MicroScale thermophoresis (MST) experiments were carried out at 25°C in the PBST Buffer (PBS with 0.05%, v/v Tween 20) by using a Monolith 2020 (TNG) (MM-208). […] The temperature-induced changes in fluorescence intensity of each sample in the capillary thermophoresis tubes were recorded by the Monolith instrument. […]

[1] = tested on: mouse caspase-2-expressing HeLa cells; test: Cell death and caspase-2 processing in HeLa TKO cells expressing mouse caspase-2; type: cell-based; details: high concentrations of HUHS015
Excerpt: Figure 4. HUHS015 activates human caspase-2 directly through specific targeting of the interdomain linker of caspase-2. (A) The direct binding between HUHS015-36 and MBP-fused human caspase-2 pro-domain was detected by microscale thermophoresis (MST). MST profiles for raw binding signals and affinity (KD) measurement are shown. The calculated dissociation constant (KD) is expressed as means ± s.d. from two determinations. (B) Sequence alignment of the pro-domain (residues 1–169) of human and mouse caspase-2. CARD domain annotation is shown on top of the sequences. Identical residues are in red background and conserved ones are in red. Numbers of starting residues are indicated on the left. Different residues in the interdomain linker (residues 122–169) were highlighted with green color. (C) HUHS015 activates human but not mouse caspase-2. HeLa TKO cells rescued with human or mouse caspase-2 expression were treated with HUHS015 for the indicated time. […] ATP-based cell viability in panels (C–E) is expressed as mean ± s.d. from three technical replicates. […] TEXT PRINTED IN THE PICTURE: (A) HUHS015-36: MBP-CASP2(32–165) vs. HUHS015-36: KD (μmol/L): 22.05 ± 6.151; MBP vs. HUHS015-36: KD (μmol/L): Not detected […]
Cell viability was measured by the ATP assay using the CellTiter-Glo® Luminescent Cell Viability Assay kit (Promega).

Row | Structure (SMILES) | KD (MBP) | apoptosis / caspase-2 processing [1]
1 | Cc1cccc2nc(-n3nc4c(c3O)CCCC4)[nH]c12 [HUHS015-36] | Not detected | 
2 | Cc1ccc2nc(-n3nc(C)c(Cc4ccccc4)c3O)[nH]c2c1 [HUHS015] |  | no apoptosis
